Among the data in US20260109708A1, “COMPOUNDS AND COMPOSITIONS USEFUL AS DEGRADERS OF MK2 KINASE” (Celgene Corporation, priority 2023, published 2026) are IC50 values, retold here.

T1 sequence (P49137 whole entry): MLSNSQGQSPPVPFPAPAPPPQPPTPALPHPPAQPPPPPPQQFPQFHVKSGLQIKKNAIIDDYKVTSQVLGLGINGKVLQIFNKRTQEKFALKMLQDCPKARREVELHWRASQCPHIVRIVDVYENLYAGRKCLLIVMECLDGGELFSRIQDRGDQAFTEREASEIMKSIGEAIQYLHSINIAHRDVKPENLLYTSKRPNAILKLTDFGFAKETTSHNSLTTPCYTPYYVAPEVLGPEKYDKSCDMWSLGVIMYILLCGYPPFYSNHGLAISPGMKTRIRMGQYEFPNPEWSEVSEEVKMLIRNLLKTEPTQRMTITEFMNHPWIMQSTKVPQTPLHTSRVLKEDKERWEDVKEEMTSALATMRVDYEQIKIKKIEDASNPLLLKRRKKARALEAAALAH

This experiment has as its target T1, p38a activated, mitogen-activated protein kinase-activated protein kinase 2 (MAPKAP-K2 or MK2) enzyme (Homo sapiens, UniProt P49137).
T1 construct: purchased Invitrogen PV3317
As to the kind of experiment: MK2 OMNIA biochemical assay (AssayQuant continuous-read kinase assay). The conditions noted are these: [MK-2]=0.05 nM, [ATP]=100 μM, [AQT0425]=10 μM. From the text: Example 56.2. Mitogen-Activated Protein Kinase-Activated Protein Kinase 2 AssayQuant Technologies® Assay for Compound Potency Assessment (MK2 OMNIA Biochemical Assay)
The protocol below describes a continuous-read kinase assay optimized to measure potency of compounds against p38a activated, mitogen-activated protein kinase-activated protein kinase 2 (MAPKAP-K2 or MK2) enzyme.
A 1.25× stock solution of MK2 (PV3317, from Invitrogen) and a 5× stock solution of ATP and Sox conjugated peptide substrate, AQT0425 (CSKS-AQT0425B, from AssayQuant Technologies), were prepared in 1× kinase reaction buffer consisting of 50 mM HEPES, pH 7.5, 0.01% Brij-35, 0.55 mM EGTA, 10 mM MgCl2 and 1 mM DTT.
10 μL of the ATP and substrate solution mix was added to a Coming (3574) 384-well, white, non-binding surface microtiter plate containing 0.5 μL of serially diluted test compounds prepared in DMSO. The reactions were started with the addition of 40 μL of the enzyme solution and monitored every 71 seconds for 240 min at kex 360/λem 485 in a Synergy H4 plate reader from BioTek at room temperature.
The initial linear portions of the net progress curves were fit according to a linear equation to yield the slope and percentage of inhibition (% inhibition) at each compound concentration. The net progress curves obtained during the entirety of reactions were also fit according to an ascending single-exponential equation (Eq. 1) to yield Vobs values at each compound concentration. Plots of % Inhibition versus degrader concentrations were fit according to a dose-response equation (Eq. 2) to generate IC50 and Hill slope values while plots of Vobs versus degrader concentration were fit according to Equation 3 (Eq. 3) to generate apparent Kinact values using the GraphPad PRISM software.
where F is the fluorescence intensity from the plate reader, V0 is a constant reflecting the relationship between the instrument readout and product concentration, t is time, e is Euler's number, and Vobs is the observed inactivation rate constant.
where % Inhibition is percentage of inhibition, IC50 is half maximal inhibitory concentration, [I] is the degraders concentration, and n is the Hill slope.
where kobs is the observed inactivation rate constant, Kinact is the apparent inactivation rate constant, K1 is the apparent inhibition constant, and [I] is the degrader concentration.
One may read the IC50 as the concentration that gives 50% inhibition. In the case of `C[C@@H]1CNc2c(sc3ccc4nc(-n5cc(C6CCN(CCN7CCC(c8ccc(C9CCC(=O)NC9=O)cc8)CC7)CC6)nn5)ccc4c23)C(=O)N1` (stereo partly drawn) [Ex 47, 3-(4-(1-(2-(4-(1-((R)-10-Methyl-8-oxo-9,10,11,12-tetrahydro-8H-[1,4]diazepino[5′,6′:4,5]thieno[3,2-f]quinolin-3-yl)-1H-1,2,3-triazol-4-yl)piperidin-1-yl)ethyl)piperidin-4-yl)phenyl)piperidine-2,6-dione], the IC50 was less than 150 nM.
As for `C[C@@H]1CNc2c(sc3ccc4nc(-c5cnn(C6CN(CCN7CCN(c8ccc(C9CCC(=O)NC9=O)cc8)CC7)C6)c5)ccc4c23)C(=O)N1` (stereo partly drawn) [Ex 51, 3-(4-(4-(2-(3-(4-((R)-10-Methyl-8-oxo-9,10,11,12-tetrahydro-8H-[1,4]diazepino[5′,6′:4,5]thieno[3,2-f]quinolin-3-yl)-1H-pyrazol-1-yl)azetidin-1-yl)ethyl)piperazin-1-yl)phenyl)piperidine-2,6-dione], the 50% inhibitory concentration (IC50) was less than 150 nM.
Under `C[C@@H]1CNc2c(sc3ccc4nc(-c5ccc(C(=O)N[C@H]6C[C@H](CCN7CCN(c8ccc9c(C%10CCC(=O)NC%10=O)nn(C)c9c8)CC7)C6)cc5F)ccc4c23)C(=O)N1` (stereo partly drawn) [Ex 4, N-(trans-3-(2-(4-(3-(2,6-Dioxopiperidin-3-yl)-1-methyl-1H-indazol-6-yl)piperazin-1-yl)ethyl)cyclobutyl)-3-fluoro-4-((R)-10-methyl-8-oxo-9,10,11,12-tetrahydro-8H-[1,4]diazepino[5′,6′:4,5]thieno[3,2-f]quinolin-3-yl)benzamide] stands less than 150 nM; under `C[C@@H]1CNc2c(sc3ccc4nc(-c5ccc(N6CC(CCN7CCN(c8ccc(C9CCC(=O)NC9=O)cc8)CC7)C6)cc5)ccc4c23)C(=O)N1` (stereo partly drawn) [Ex 42, 3-(4-(4-(2-(1-(4-((R)-10-Methyl-8-oxo-9,10,11,12-tetrahydro-8H-[1,4]diazepino[5′,6′:4,5]thieno[3,2-f]quinolin-3-yl)phenyl)azetidin-3-yl)ethyl)piperazin-1-yl)phenyl)piperidine-2,6-dione], less than 150 nM; under `C[C@@H]1CNc2c(sc3ccc4nc(-c5ccc(C(=O)NC6CCN(c7ccc(C8CCC(=O)NC8=O)cc7)CC6)cc5F)ccc4c23)C(=O)N1` (stereo partly drawn) [Ex 7, N-(1-(4-(2,6-Dioxopiperidin-3-yl)phenyl)piperidin-4-yl)-3-fluoro-4-((R)-10-methyl-8-oxo-9,10,11,12-tetrahydro-8H-[1,4]diazepino[5′,6′:4,5]thieno[3,2-f]quinolin-3-yl)benzamide], less than 150 nM.
With `C[C@@H]1COc2c(sc3ccc4nc(-c5cccc(N6CCN(CCN7CCN(c8ccc(C9CCC(=O)NC9=O)cc8)CC7)CC6)c5)ccc4c23)C(=O)N1` (stereo partly drawn) [Ex 16, 3-(4-(4-(2-(4-(3-((R)-10-Methyl-8-oxo-8,9,10,11-tetrahydro-[1,4]oxazepino[7′,6′:4,5]thieno[3,2-f]quinolin-3-yl)phenyl)piperazin-1-yl)ethyl)piperazin-1-yl)phenyl)piperidine-2,6-dione], the IC50 is less than 150 nM.
Regarding `C[C@@H]1CNc2c(sc3ccc4nc(-c5cccc(N6CCN(C(=O)C(=O)N7CCN(c8ccc(C9CCC(=O)NC9=O)cc8)CC7)CC6)c5)ccc4c23)C(=O)N1` (stereo partly drawn) [Ex 13, 3-(4-(4-(2-(4-(3-((R)-10-Methyl-8-oxo-9,10,11,12-tetrahydro-8H-[1,4]diazepino[5′,6′:4,5]thieno[3,2-f]quinolin-3-yl)phenyl)piperazin-1-yl)-2-oxoacetyl)piperazin-1-yl)phenyl)piperidine-2,6-dione], the IC50 was less than 150 nM.
For the compound `C[C@@H]1CNc2c(sc3ccc4nc(-c5ccc(C(=O)NCCN6CCN(c7ccc8c(C9CCC(=O)NC9=O)nn(C)c8c7)CC6)cc5F)ccc4c23)C(=O)N1` (stereo partly drawn) [Ex 2, N-(2-(4-(3-(2,6-dioxopiperidin-3-yl)-1-methyl-1H-indazol-6-yl)piperazin-1-yl)ethyl)-3-fluoro-4-((R)-10-methyl-8-oxo-9,10,11,12-tetrahydro-8H-[1,4]diazepino[5′,6′:4,5]thieno[3,2-f]quinolin-3-yl)benzamide], the IC50 is less than 150 nM.
The same measure for `C[C@@H]1CNc2c(sc3ccc4nc(-n5cc(C6CCN(CCN7CCN(c8ccc9c(C%10CCC(=O)NC%10=O)nn(C)c9c8)CC7)CC6)nn5)ccc4c23)C(=O)N1` (stereo partly drawn) [Ex 46, 3-(1-Methyl-6-(4-(2-(4-(1-((R)-10-methyl-8-oxo-9,10,11,12-tetrahydro-8H-[1,4]diazepino[5′,6′:4,5]thieno[3,2-f]quinolin-3-yl)-1H-1,2,3-triazol-4-yl)piperidin-1-yl)ethyl)piperazin-1-yl)-1H-indazol-3-yl)piperidine-2,6-dione]: less than 150 nM; for `C[C@@H]1CNc2c(sc3ccc4nc(-c5ccc(N6CCC(CCN7CCC(c8ccc(C9CCC(=O)NC9=O)cc8)CC7)CC6)cc5)ccc4c23)C(=O)N1` (stereo partly drawn) [Ex 40, 3-(4-(1-(2-(1-(4-((R)-10-Methyl-8-oxo-9,10,11,12-tetrahydro-8H-[1,4]diazepino[5′,6′:4,5]thieno[3,2-f]quinolin-3-yl)phenyl)piperidin-4-yl)ethyl)piperidin-4-yl)phenyl)piperidine-2,6-dione]: 151 to 500 nM.
The same measure for `C[C@@H]1CNc2c(sc3ccc4nc(-c5cn(C6CCN(CCN7CCC(c8ccc(C9CCC(=O)NC9=O)cc8)CC7)CC6)nn5)ccc4c23)C(=O)N1` (stereo partly drawn) [Ex 48, 3-(4-(1-(2-(4-(4-((R)-10-Methyl-8-oxo-9,10,11,12-tetrahydro-8H-[1,4]diazepino[5′,6′:4,5]thieno[3,2-f]quinolin-3-yl)-1H-1,2,3-triazol-1-yl)piperidin-1-yl)ethyl)piperidin-4-yl)phenyl)piperidine-2,6-dione]: less than 150 nM.
On to `C[C@@H]1CNc2c(sc3ccc4nc(-c5cccc(N6CCN(CCN7CCN(c8ccc9c(C%10CCC(=O)NC%10=O)nn(C)c9c8)CC7)CC6)c5)ccc4c23)C(=O)N1` (stereo partly drawn) [Ex 12, 3-(1-Methyl-6-(4-(2-(4-(3-((R)-10-methyl-8-oxo-9,10,11,12-tetrahydro-8H-[1,4]diazepino[5′,6′:4,5]thieno[3,2-f]quinolin-3-yl)phenyl)piperazin-1-yl)ethyl)piperazin-1-yl)-1H-indazol-3-yl)piperidine-2,6-dione], for which the IC50 was less than 150 nM.
For the compound `C[C@@H]1CNc2c(sc3ccc4nc(-c5ccc(N6CCN(CCN7CCN(c8ccc9c(C%10CCC(=O)NC%10=O)nn(C)c9c8)CC7)CC6)cc5)ccc4c23)C(=O)N1` (stereo partly drawn) [Ex 21, 3-(1-Methyl-6-(4-(2-(4-(4-((R)-10-methyl-8-oxo-9,10,11,12-tetrahydro-8H-[1,4]diazepino[5′,6′:4,5]thieno[3,2-f]quinolin-3-yl)phenyl)piperazin-1-yl)ethyl)piperazin-1-yl)-1H-indazol-3-yl)piperidine-2,6-dione], the IC50 fell in the range of 151 to 500 nM.
On to `C[C@@H]1CNc2c(sc3ccc4nc(-c5ccc(C6CCN(CCN7CCN(c8ccc9c(C%10CCC(=O)NC%10=O)nn(C)c9c8)CC7)CC6)cc5)ccc4c23)C(=O)N1` (stereo partly drawn) [Ex 28, 3-(1-Methyl-6-(4-(2-(4-(4-((R)-10-methyl-8-oxo-9,10,11,12-tetrahydro-8H-[1,4]diazepino[5′,6′:4,5]thieno[3,2-f]quinolin-3-yl)phenyl)piperidin-1-yl)ethyl)piperazin-1-yl)-1H-indazol-3-yl)piperidine-2,6-dione], for which the half-maximal inhibitory concentration (IC50) was less than 150 nM.
As to `C[C@@H]1CNc2c(sc3ccc4nc(-n5cc(C6CN(CCN7CCN(c8ccc(C9CCC(=O)NC9=O)cc8)CC7)C6)nn5)ccc4c23)C(=O)N1` (stereo partly drawn) [Ex 53, 3-(4-(4-(2-(3-(1-((R)-10-Methyl-8-oxo-9,10,11,12-tetrahydro-8H-[1,4]diazepino[5′,6′:4,5]thieno[3,2-f]quinolin-3-yl)-1H-1,2,3-triazol-4-yl)azetidin-1-yl)ethyl)piperazin-1-yl)phenyl)piperidine-2,6-dione], the IC50 was less than 150 nM.
Regarding `C[C@@H]1CNc2c(sc3ccc4nc(-c5ccc(C6CCN(CCN7CCN(c8ccc(C9CCC(=O)NC9=O)cc8)CC7)CC6)nc5)ccc4c23)C(=O)N1` (stereo partly drawn) [Ex 34, 3-(4-(4-(2-(4-(5-((R)-10-Methyl-8-oxo-9,10,11,12-tetrahydro-8H-[1,4]diazepino[5′,6′:4,5]thieno[3,2-f]quinolin-3-yl)pyridin-2-yl)piperidin-1-yl)ethyl)piperazin-1-yl)phenyl)piperidine-2,6-dione], the half-maximal inhibitory concentration (IC50) lay in the range of 151 to 500 nM.
Under `C[C@@H]1CNc2c(sc3ccc4nc(-c5ccc(C6CCN(CCN7CCN(c8ccc(C9CCC(=O)NC9=O)cc8)CC7)CC6)cn5)ccc4c23)C(=O)N1` (stereo partly drawn) [Ex 35, 3-(4-(4-(2-(4-(6-((R)-10-Methyl-8-oxo-9,10,11,12-tetrahydro-8H-[1,4]diazepino[5′,6′:4,5]thieno[3,2-f]quinolin-3-yl)pyridin-3-yl)piperidin-1-yl)ethyl)piperazin-1-yl)phenyl)piperidine-2,6-dione] stands less than 150 nM.
